Laboratory results reported in publication PMC8162438, “Cancer cell-selective modulation of mitochondrial respiration and metabolism by potent organogold(III) dithiocarbamates” (Chemical Science, 2020).

Test system: MRC5
Test: MTT cell viability, human fetal lung fibroblasts MRC5
Format: cell-based
Details: 72 h
Method: All the gold(III) dithiocarbamate compounds display remarkable cell killing potential in a panel of breast, ovarian, lung and leukemia cancers. Preliminary studies focused on different cancer cell lines (MDA-MB-231, MDA-MB-175, and A2780), an immortalized normal retinal epithelial cell line (RPE-NEO) and human fetal lung fibroblasts (MRC5) (Fig. S111–S129 ^†). These adherent cells were exposed to a serial-diluted concentration of all ten compounds for 72 h. The cells were subsequently treated with 3-(4,5-dimethylthiazol-2-yl)-2,5-diphenyltetrazolium bromide (MTT) solutions, dissolved with DMSO and the absorbance at 570 nm was measured with a plate-reader.
In Vitro Biological Assays
Cell Culture. All cell lines were purchased from ATCC and routinely grown in a humidified incubator at 37 °C with 5-10% CO 2. MDA-MB-231, MDA-MB-175, MRC5, RPE-NEO, H460, and K562 were grown in DMEM supplemented with 10% FBS, 1% amphotericin and 1% penicillin/streptomycin. A2780 cells were grown in RPMI supplemented with 10% FBS, 1% amphotericin, and 1% penicillin/streptomycin, and 4 mM glutamine. All supplements along with PBS and trypsin-EDTA were purchased from Corning Inc. and used as is. […]
Cell Viability of 1a-1e and 2a-2e (Adherent Cell Lines). The cell viability of all 10 complexes were performed in MDA-MB-231, MDA-MB-175, A2780, RPE-NEO and MRC5. The cell viability of compound 2a was also determined in H460. Cells were grown to confluency and trypsin was added to detach and harvest cells. The cells were washed with 2 mL of PBS and suspended in 10 mL of the appropriate media. The cells were centrifuged at 2000 rpm for 5 minutes and the pellet washed with 2 mL of PBS then suspended in 5 mL of the appropriate […]
media. The cells were plated at a density of 2,000 cells/well in a 96-well clear bottom plate and allowed to adhere overnight at 37 °C with 5-10% CO 2. The compounds were prepared as a stock in DMSO and used fresh. The compounds were added at seven concentrations with a 3x serial dilution starting at 50 µM for the highest concentration and incubated at 37 °C for 72 h with 5-10% CO 2. The medium was removed and a solution of MTT (100 µL, prepared by dissolving MTT at 5 mg/mL and diluting by 10x with DMEM) was added to each well and incubated for 4 h at 37 ° C with 5-10% CO 2. The dye was removed from each well and 100 µL of DMSO was added to induce cell lysis. The plates were read using a Genios plate reader (λ = 570 nm). The experiment was performed in triplicate and data are plotted as the mean ± s.e.m. (n = 3). Data for 2a can be found in the main text (Figure 6) and the other complexes can be seen in the supplementary figures (S111 – S129). […]
Cells were grown to confluency and centrifuged at 2000 rpm for 5 minutes to collect the cell pellet. The cells were washed with 5 mL of PBS, suspended in 5 mL of DMEM, and centrifuged again at 2000 rpm for 5 minutes to collect the pellet. The pellet was then washed with 2 mL of PBS and suspended in 5 mL of DMEM. The cells were plated at density of 2,000 cells/well in a 96-well white bottom plate. 2a was prepared as a stock solution […]
10% CO 2. The cells were removed from the incubator and allowed to rest at room temperature for 30 minutes. To each designated well was then added 20 µL of CellTiter-Glo solution and orbitally shaken for 5 minutes and the luminescence (1000 ms integration and 150 ms gain) acquired on a Genios plate reader. The experiment was performed in triplicate. Data are plotted […]
Apoptosis Analysis. […]
A stock of 2a was prepared fresh in DMSO and added to the desired well at a concentration of 1 µM with a final volume of 2.5 mL and incubated for 4 h at 37 °C. A stock of H2O2 was prepared in PBS and the cells treated at a final concentration of 2 mM for 1 hour as a […]

Q: `COc1ccc(N2CC[N+](=C3[S][Au-2]4([S]3)[c]3ccccc3Cc3cccc[n+]34)CC2)cc1.F[P-](F)(F)(F)(F)F` (centres unmarked) [2e] was tested. Which IC50 did it give?
A: Its IC50 is over 50 µM.

Q: With `Brc1ccc(N2CC[N+](=C3[S][Au-2]4([S]3)[c]3ccccc3Cc3cccc[n+]34)CC2)cc1.F[P-](F)(F)(F)(F)F` (centres unmarked) [2d] as the compound, how does the IC50 read?
A: The IC50 was over 50 µM.

Q: With `F[P-](F)(F)(F)(F)F.O=C1c2cccc[c]2[Au-2]2([S]C(=[N+]3CCCCC3)[S]2)[n+]2ccccc21` (centres unmarked) [1c] as the compound, how does the IC50 read?
A: The IC50 was over 50 µM.

Q: How did the IC50 turn out when `F[P-](F)(F)(F)(F)F.c1cc[c]2c(c1)Cc1cccc[n+]1[Au-2]21[S]C(=[N+]2CCCCC2)[S]1` (centres unmarked) [2c] was run?
A: Its IC50 is over 50 µM.

Q: How did the IC50 turn out when `CC[N+](CC)=C1[S][Au-2]2([S]1)[c]1ccccc1C(=O)c1cccc[n+]12.F[P-](F)(F)(F)(F)F` (centres unmarked) [1b] was run?
A: Its IC50 is over 50 µM.

Q: With `F[P-](F)(F)(F)(F)F.O=C1c2cccc[c]2[Au-2]2([S]C(=[N+]3CCN(c4ccc(Br)cc4)CC3)[S]2)[n+]2ccccc21` (centres unmarked) [1d] as the compound, how does the IC50 read?
A: Its IC50 is over 50 µM.

Q: For `COc1ccc(N2CC[N+](=C3[S][Au-2]4([S]3)[c]3ccccc3C(=O)c3cccc[n+]34)CC2)cc1.F[P-](F)(F)(F)(F)F` (centres unmarked) [1e], which IC50 is on record?
A: Its IC50 is over 50 µM.

Q: With `CC[N+](CC)=C1[S][Au-2]2([S]1)[c]1ccccc1Cc1cccc[n+]12.F[P-](F)(F)(F)(F)F` (centres unmarked) [2b] as the compound, how does the IC50 read?
A: Its IC50 is over 50 µM.
